Experimental data reported in patent US20260274837A1, “PESTICIDALLY ACTIVE HETEROCYCLIC DERIVATIVES WITH SULFUR CONTAINING SUBSTITUENTS” (SYNGENTA CROP PROTECTION AG, priority 2023, published 2026).

Columns and labels:
Type in all cases: in vivo
[1] = system: Spodoptera littoralis; assay: Activity against Spodoptera littoralis (Egyptian cotton leaf worm), sprayed cotton leaf discs; details: foliar, 72 h, application rate 200 ppm, L1 larvae, assessed 3 days after infestation vs untreated, read-out: control (at least one of mortality, anti-feedant effect, growth inhibition)
Experimental: Example B4: Activity Against Spodoptera littoralis (Egyptian Cotton Leaf Worm)
Cotton leaf discs were placed onto agar in 24-well microtiter plates and sprayed with aqueous test solutions prepared from 10′000 ppm DMSO stock solutions. After drying the leaf discs were infested with five L1 larvae. The samples were assessed for mortality, anti-feeding effect, and growth inhibition in comparison to untreated samples 3 days after infestation. Control of Spodoptera littoralis by a test sample is given when at least one of the categories mortality, anti-feedant effect, and growth inhibition is higher than the untreated sample.

[2] = system: Chilo suppressalis; assay: Activity against Chilo suppressalis (striped rice stemborer), artificial diet in 24-well plates; details: 144 h, application rate 200 ppm, L2 larvae, assessed 6 days after infestation vs untreated, read-out: control (at least one of mortality, anti-feedant effect, growth inhibition)
Experimental: Example B1: Activity Against Chilo suppressalis (Striped Rice Stemborer)
24-well microtiter plates with artificial diet were treated with aqueous test solutions prepared from 10′000 ppm DMSO stock solutions by pipetting. After drying, the plates were infested with L2 larvae (6-8 per well). The samples were assessed for mortality, anti-feeding effect, and growth inhibition in comparison to untreated samples 6 days after infestation. Control of Chilo suppressalis by a test sample is given when at least one of the categories mortality, anti-feedant effect, and growth inhibition is higher than the untreated sample.

[3] = system: Diabrotica balteata; assay: Activity against Diabrotica balteata (corn root worm), sprayed maize sprouts on agar; details: 96 h, application rate 200 ppm, L2 larvae, assessed 4 days after infestation vs untreated, read-out: effect in at least one of the two categories (mortality or growth inhibition)
Experimental: Example B2: Activity Against Diabrotica Balteata (Corn Root Worm)
Maize sprouts placed onto an agar layer in 24-well microtiter plates were treated with aqueous test solutions prepared from 10′000 ppm DMSO stock solutions by spraying. After drying, the plates were infested with L2 larvae (6 to 10 per well). The samples were assessed for mortality and growth inhibition in comparison to untreated samples 4 days after infestation.

[4] = system: Plutella xylostella; assay: Activity against Plutella xylostella (diamond back moth), artificial diet in 24-well plates; details: 192 h, application rate 200 ppm, eggs, assessed 8 days after infestation vs untreated, read-out: effect in at least one of the two categories (mortality or growth inhibition)
Experimental: Example B3: Activity Against Plutella xylostella (Diamond Back Moth)
24-well microtiter plates with artificial diet were treated with aqueous test solutions prepared from 10′000 ppm DMSO stock solutions by pipetting. After drying, Plutella eggs were pipetted through a plastic stencil onto a gel blotting paper and the plate was closed with it. The samples were assessed for mortality and growth inhibition in comparison to untreated samples 8 days after infestation.

CCS(=O)(=O)c1c(-c2coc3cc(C(F)(F)F)ccc3c2=O)nc2cc(C(F)(F)F)ccn12 [P.1, 3-[3-ethylsulfonyl-7-(trifluoromethyl)imidazo[1,2-a]pyridin-2-yl]-7-(trifluoromethyl)chromen-4-one]
≥ 80%: percent control (mortality, anti-feedant effect or growth inhibition) at 200 ppm [1] | percent control (mortality, anti-feedant effect or growth inhibition) at 200 ppm [2] | percent effect (mortality or growth inhibition) at 200 ppm [3] | percent effect (mortality or growth inhibition) at 200 ppm [4]
